Results taken from ChEMBL document CHEMBL3046346, “Synthesis and analgesic, anti-inflammatory activities of 3-(3-methoxyphenyl)-2-substituted amino-quinazolin-4(3H)-ones” (Med Chem Res, 2011).

Legend:
[1] = test system: Rattus norvegicus; assay: Anti-inflammatory activity in Rattus norvegicus (rat) assessed as inhibition of carrageenan-induced paw edema at 10 mg/kg, po measured at 30 min; type: functional; settings: 0.5 h
[2] = test system: Mus musculus; assay: […] activity in Mus musculus Wistar albino (mouse) at 10 mg/kg, po after 2 hr by tail-flick test; type: functional
[3] = test system: Rattus norvegicus; assay: Anti-inflammatory activity in Rattus norvegicus (rat) assessed as inhibition of carrageenan-induced paw edema at 10 mg/kg, po measured at 2 hr; type: functional
[4] = test system: Rattus norvegicus; assay: Anti-inflammatory activity in Rattus norvegicus (rat) assessed as inhibition of carrageenan-induced paw edema at 10 mg/kg, po measured at 1 hr; type: functional
[5] = test system: Mus musculus; assay: […] activity in Mus musculus Wistar albino (mouse) at 10 mg/kg, po after 30 min by tail-flick test; type: functional
[6] = test system: Mus musculus; assay: […] activity in Mus musculus Wistar albino (mouse) at 10 mg/kg, po after 1 hr by tail-flick test; type: functional
[7] = test system: Mus musculus; assay: […] activity in Mus musculus Wistar albino (mouse) at 10 mg/kg, po after 3 hr by tail-flick test; type: functional
[8] = test system: Rattus norvegicus; assay: Gastrointestinal toxicity in fasted Rattus norvegicus Wistar albino (rat) assessed as ulcer index at 20 mg/kg, ip measured after 4 hr; type: organism-based; parameters: dose 20 mg/kg, route intraperitoneal; settings: in vivo
[9] = test system: Rattus norvegicus; assay: Anti-inflammatory activity in Rattus norvegicus (rat) assessed as inhibition of carrageenan-induced paw edema at 10 mg/kg, po measured at 3 hr; type: functional

Row | Structure (SMILES) | inhibition in vivo at 10 mg/kg [1] [%] | Activity [2] [%] | inhibition in vivo at 10 mg/kg [3] [%] | inhibition in vivo at 10 mg/kg [4] [%] | Activity [5] [%] | Activity [6] [%] | Activity [7] [%] | UI [8] | inhibition in vivo at 10 mg/kg [9] [%]
1 | CCC(CC)=NNc1nc2ccccc2c(=O)n1-c1cccc(OC)c1 | 45 | 66 | 53 | 48 | 56 | 61 | 38 | 0.51 | 34
2 | CCC/C(C)=N/Nc1nc2ccccc2c(=O)n1-c1cccc(OC)c1 | 42 | 68 | 49 | 47 | 57 | 64 | 41 | 0.58 | 34
3 | COc1cccc(-n2c(NN=C3CCCCC3)nc3ccccc3c2=O)c1 | 37 | 53 | 43 | 40 | 46 | 49 | 38 | 0.61 | 31
4 | COc1cccc(-n2c(N/N=C(\C)c3ccccc3)nc3ccccc3c2=O)c1 | 39 | 51 | 45 | 42 | 44 | 46 | 36 | 0.62 | 32
5 | COc1cccc(-n2c(N/N=C3/C(=O)Nc4ccccc43)nc3ccccc3c2=O)c1 | 35 | 46 | 40 | 37 | 39 | 43 | 36 |  | 31
6 | COc1cccc(-n2c(N/N=C\c3ccccc3)nc3ccccc3c2=O)c1 | 35 | 47 | 47 | 38 | 40 | 47 | 35 |  | 31
7 | COc1cccc(-n2c(N/N=C\c3ccccc3Cl)nc3ccccc3c2=O)c1 | 29 | 42 | 37 | 33 | 32 | 39 | 33 |  | 27
8 | COc1cccc(-n2c(N/N=C\c3ccc(Cl)cc3)nc3ccccc3c2=O)c1 | 33 | 42 | 37 | 36 | 34 | 40 | 34 |  | 27
9 | COc1cccc(-n2c(N/N=C\c3ccccc3[N+](=O)[O-])nc3ccccc3c2=O)c1 | 35 | 45 | 38 | 35 | 35 | 41 | 36 |  | 27
10 | COc1cccc(-n2c(N/N=C\c3ccc([N+](=O)[O-])cc3)nc3ccccc3c2=O)c1 | 33 | 42 | 37 | 35 | 35 | 40 | 36 |  | 29
11 | COc1ccc(/C=N\Nc2nc3ccccc3c(=O)n2-c2cccc(OC)c2)cc1 | 29 | 41 | 37 | 35 | 30 | 37 | 30 |  | 27
12 | COc1cccc(-n2c(N/N=C\c3ccccc3C)nc3ccccc3c2=O)c1 | 36 | 51 | 42 | 41 | 39 | 45 | 34 |  | 30
13 | COc1cccc(-n2c(N/N=C\c3ccc(C)cc3)nc3ccccc3c2=O)c1 | 32 | 50 | 40 | 35 | 44 | 48 | 37 |  | 28
14 | COc1cccc(-n2c(NN=C(c3ccccc3)c3ccccc3)nc3ccccc3c2=O)c1 | 33 | 49 | 41 | 38 | 41 | 46 | 36 |  | 30
15 | CC/C(C)=N/Nc1nc2ccccc2c(=O)n1-c1cccc(OC)c1 | 41 | 61 | 46 | 45 | 53 | 58 | 37 | 0.53 | 32
16 | CC(=O)Oc1ccccc1C(=O)O [ASPIRIN] |  |  |  |  |  |  |  | 1.73 | 
17 | O=C([O-])Cc1ccccc1Nc1c(Cl)cccc1Cl.[Na+] [DICLOFENAC SODIUM] | 32 | 45 | 39 | 38 | 37 | 43 | 33 | 1.65 | 33
